From patent US20070243132A1, “Transdermal delivery of pharmaceutical agents” (priority 2005, published 2007)
Counter-ions that a name gives are not always drawn.

Key:
B16 melanoma line = experiment: Topical treatment of B16 melanoma in mice; settings: microemulsion 10 mg/ml, 20 microlitre, 2 times per day, after 4 days
[1] = system: Carrageenan-induced inflammation in the rear right footpad; experiment: Carrageenan-induced footpad inflammation, foot thickness; assay type: in vivo, mice; settings: for reduction of inflammation (foot thickness): microemulsion 10 mg/ml VB12 analog, 20 microL on shaved belly, 14 days; for reduction of inflammation (foot thickness) vs untreated animals: microemulsion 10 mg/ml, topical on shaved belly, FIG. 8
[2] = microemulsions compared to a hydrogel; cited from earlier work
[3] = Distribution of 125I-labeled proteins after transdermal application in a microemulsion; settings: conscious Balb/C mice; for counts in the organs of the intestine: presumed due to grooming
[4] = Weight loss microemulsion in overweight Swiss mice; assay type: in vivo; settings: topical microemulsion 1 mg/ml daily
Description: A microemulsion for topical weight loss was prepared according to the methods described in Examples 1 and 7, and included insulin, or insulin-like growth factor 1 (IGF1) or GHRP-6 at a final concentration of 1 mg/ml. A standardised volume of microemulsion was applied daily (TD) to an area of shaved skin on the belly of conscious Swiss strain mice. A standardised volume of each of insulin, or insulin-like growth factor 1 (IGF1) or GHRP-6 at a final concentration of 1 mg/ml in saline was injected sub cutaneously (SC) into the belly region of Swiss strain mice. Animal weights were measured 3 times per week. Following 2 weeks of treatment the mice were euthanased and their tissues removed and weighed. The weight of the animals with time is plotted in FIG. 11. It can be seen that there was a decrease in body weight of animals treated with the topical insulin of up to 15% within 2 weeks (FIG. 11).

O=c1[nH]cc(F)c(=O)[nH]1 [5-fluorouracil]
growth rate of the tumour (B16 melanoma line): reduction in growth rate of the tumour

N.N.O=C([O-])C1(C(=O)[O-])CCC1.[Pt+2] [Carboplatin]
body weight of the animals (B16 melanoma line): no reduction in body weight
growth rate of the tumour (B16 melanoma line): reduction in growth rate of the tumour

N.N.[Cl][Pt][Cl] [Cis-Platinum]
body weight of the animals (B16 melanoma line): no reduction in body weight
growth rate of the tumour (B16 melanoma line): reduction in growth rate of the tumour

C/C1=C2/[N-][C@H]([C@H](CC(N)=O)[C@@]2(C)CCC(=O)NC[C@@H](C)OP(=O)([O-])O[C@H]2[C@@H](O)[C@@H](n3cnc4cc(C)c(C)cc43)O[C@@H]2CO)[C@]2(C)N=C(/C(C)=C3N=C(/C=C4N=C1[C@@H](CCC(N)=O)C\4(C)C)[C@@H](CCC(N)=O)[C@]\3(C)CC(N)=O)[C@@H](CCC(N)=O)[C@]2(C)CC(N)=O.[CH2-][C@H]1O[C@@H](n2cnc3c(N)ncnc32)[C@H](O)[C@@H]1O.[Co] [adenosyl-cobalamin]
comparison of reduction in inflammation among the compositions ([1]; C57/BI6 mice, VB12 analog microemulsions, FIG. 7): greatest reduction in inflammation
reduction of inflammation (foot thickness) ([1]; C57/BI6 mice, FIG. 7): active in reducing inflammation
reduction of inflammation (foot thickness) vs untreated animals ([1]; C57/BI6 mice): active in reducing inflammation
level of inflammation in the rear right foot-pad vs untreated animals ([1]; C57/BI6 mice, microemulsions of Example 13, topical on shaved belly, FIG. 6): significantly lower level of inflammation

C/C1=C2/[N-][C@H]([C@H](CC(N)=O)[C@@]2(C)CCC(=O)NC[C@H](C)OP(=O)([O-])O[C@H]2[C@@H](O)[C@@H](n3cnc4cc(C)c(C)cc43)O[C@@H]2CO)[C@]2(C)N=C(/C(C)=C3N=C(/C=C4N=C1[C@@H](CCC(N)=O)C\4(C)C)[C@@H](CCC(N)=O)[C@]\3(C)CC(N)=O)[C@@H](CCC(N)=O)[C@]2(C)CC(N)=O.[Co+2] [cobalamin]
reduction of inflammation (foot thickness) ([1]; C57/BI6 mice, FIG. 7): active in reducing inflammation

C/C1=C2/[N-][C@H]([C@H](CC(N)=O)[C@@]2(C)CCC(=O)NC[C@@H](C)OP(=O)([O-])O[C@H]2[C@@H](O)[C@@H](n3cnc4cc(C)c(C)cc43)O[C@@H]2CO)[C@]2(C)N=C(/C(C)=C3N=C(/C=C4N=C1[C@@H](CCC(N)=O)C\4(C)C)[C@@H](CCC(N)=O)[C@]\3(C)CC(N)=O)[C@@H](CCC(N)=O)[C@]2(C)CC(N)=O.[Co+3].[OH-] [hydroxycobalamin, reference compound]
reduction of inflammation (foot thickness) ([1]; C57/BI6 mice, FIG. 7): active in reducing inflammation

CCCNC(C)C(=O)Nc1ccccc1C (stereo not shown) [prilocaine hydrochloride]
increase of transdermal flux [2]: ~10 times

EGF: 125I-labeled Epidermal Growth Factor in a microemulsion
appearance of 125I in skin, muscle and shaved area ([3]; after 3 hours, FIG. 3): rapid appearance of ^125I in skin, muscle and the shaved area of the skin
counts in the organs of the intestine ([3]; after 3 hours): appearance of counts in the stomach, SI-1, SI-2, caecum and faeces

H-Met-Gln-Glu-Asn-Ser-OH [MLIF-A]
reduction of inflammation (foot thickness) vs untreated animals ([1]; C57/BI6 mice): active in reducing inflammation

H-Met-Gln-Ile-Asn-Ser-OH [MLIF-B]
reduction of inflammation (foot thickness) vs untreated animals ([1]; C57/BI6 mice): active in reducing inflammation

H-Met-Gln-Met-Asn-Ser-OH [MLIF-C]
reduction of inflammation (foot thickness) vs untreated animals ([1]; C57/BI6 mice): active in reducing inflammation

adalimumab
level of inflammation in the rear right foot-pad vs untreated animals ([1]; microemulsion, TNFRII-Fc 5 mg/ml or adalimumab 4 mg/ml, topical, FIG. 9): significantly lower levels of inflammation

cyanocobalamin [reference compound]
reduction of inflammation (foot thickness) ([1]; C57/BI6 mice, FIG. 7): active in reducing inflammation

insulin: insulin in a microemulsion (125I-labeled in Example 5; 1 mg/ml in Example 20)
appearance of 125I in skin, muscle and shaved area ([3]; overnight, FIG. 4): rapid appearance of ^125I in skin, muscle and the shaved area of the skin
counts in the organs of the intestine ([3]; overnight): appearance of counts in the stomach, SI-1, SI-2, caecum and faeces
change of organ weights compared with other groups ([4]; 2 weeks, FIG. 10): greatest change
muscle mass ([4]; 2 weeks, FIG. 10): increased
weight of skin ([4]; 2 weeks, FIG. 10): significantly reduced
decrease in body weight ([4]; within 2 weeks, FIG. 11): up to 15%
